Reference: PubChem BioAssay AID192 (DTP/NCI, 2004)
“And” between values parts separate entries of the source, which are not always exact repeats. Identical values can stand only once. Toxic doses and inconclusive results are not listed.

System: BDF1 mice, B16 melanoma ip, median survival T/C
Assay: NCI In Vivo Anticancer Drug Screen. Data for tumor model B16 Melanoma (intraperitoneal) in B6D2F1 (BDF1) mice
Details: endpoint: median survival time, higher = longer survival
How it was run: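 Read-out: survival or tumor size, given as treated/control ratio. Controls received vehicle only; animals bore transplantable tumors.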

[1] = dose: 6.25 mg/kg/injection, schedule: Q01DX009 (ip), vehicle: saline with Tween-80
[2] = dose: 12.5 mg/kg/injection, schedule: Q01DX009 (ip), vehicle: saline with Tween-80
[3] = dose: 25.0 mg/kg/injection, schedule: Q01DX009 (ip), vehicle: saline with Tween-80
[4] = dose: 50.0 mg/kg/injection, schedule: Q01DX009 (ip), vehicle: saline with Tween-80
[5] = dose: 100.0 mg/kg/injection, schedule: Q01DX009 (ip), vehicle: saline with Tween-80
[6] = dose: 3.13 mg/kg/injection, schedule: Q01DX009 (ip), vehicle: saline with Tween-80
[7] = dose: 200.0 mg/kg/injection, schedule: Q01DX009 (ip), vehicle: saline with Tween-80

CCCCCCCCCCCC1=C(O)C(=O)C=C(O)C1=O
T/C [1]: 102 % of control
T/C [2]: 96 % of control
T/C [3]: 86 % of control

CC(=O)NC(CC(C)C)C(=O)O (stereo unspecified)
T/C [3]: 108 % of control
T/C [4]: 121 % of control
T/C [5]: 101 % of control

Cc1c2cccc(Sc3ccccc3)c2c2c3c(cccc13)[S+](c1ccccc1)C2 (stereo unspecified)
T/C (dose: 0.78 mg/kg/injection, schedule: Q01DX009 (ip), vehicle: saline with Tween-80): 104 % of control
T/C (dose: 1.56 mg/kg/injection, schedule: Q01DX009 (ip), vehicle: saline with Tween-80): 105 % of control
T/C [6]: 102 % of control
T/C [1]: 91 % of control and 100 % of control

CCCCC(=O)OCC1OC(n2cnc3c(=S)nc[nH]c32)C(OC(=O)CCCC)C1OC(=O)CCCC (stereo unspecified)
T/C [3]: 119 % of control

O=C(NC(Cc1ccccc1)C(=O)O)OCC1c2ccccc2-c2ccccc21 (stereo unspecified)
T/C (dose: 50.0 mg/kg/injection, schedule: Q01DX009 (ip), vehicle: Klucel (hydroxypropylcellulose) (HPC)): 106 % of control
T/C (dose: 100.0 mg/kg/injection, schedule: Q01DX009 (ip), vehicle: Klucel (hydroxypropylcellulose) (HPC)): 114 % of control

CN(C)c1ccc(N=C2C=CC(=O)C=C2)cc1
T/C (dose: 1.5 mg/kg/injection, schedule: Q01DX009 (ip), vehicle: saline): 111 % of control
T/C (dose: 3.0 mg/kg/injection, schedule: Q01DX009 (ip), vehicle: saline): 98 % of control
T/C (dose: 6.0 mg/kg/injection, schedule: Q01DX009 (ip), vehicle: saline): 105 % of control

CCC1=C[C@H]2CN(CCc3c([nH]c4ccccc34)[C@@](C(=O)OC)(c3cc4c(cc3OC)N(C)[C@H]3[C@@](O)(C(=O)OC)[C@H](OC(C)=O)[C@]5(CC)C=CCN6CC[C@]43[C@@H]65)C2)C1
T/C (dose: 0.05 mg/kg/injection, schedule: Q01DX009 (ip), vehicle: saline): 116 % of control
T/C (dose: 0.06 mg/kg/injection, schedule: Q01DX009 (ip), vehicle: water): 100 % of control and 107 % of control
T/C (dose: 0.1 mg/kg/injection, schedule: Q01DX009 (ip), vehicle: saline): 116 % of control
T/C (dose: 0.13 mg/kg/injection, schedule: Q01DX009 (ip), vehicle: water): 103 % of control and 120 % of control
T/C (dose: 0.25 mg/kg/injection, schedule: Q01DX009 (ip), vehicle: water): 108 % of control
T/C (dose: 0.8 mg/kg/injection, schedule: Q01DX009 (ip), vehicle: saline): 181 % of control
T/C (dose: 1.6 mg/kg/injection, schedule: Q01DX009 (ip), vehicle: saline): 208 % of control
T/C (dose: 4.0 mg/kg/injection, schedule: Q04DX003 (ip), vehicle: water): 175 % of control

O=[N+]([O-])c1ccc(CSc2ncnc3c2ncn3C2OC(CO)C(O)C2O)cc1 (stereo unspecified)
T/C [6]: 90 % of control
T/C [1]: 90 % of control
T/C [2]: 90 % of control
T/C [3]: 86 % of control
T/C [4]: 86 % of control
T/C [5]: 79 % of control
T/C [7]: 75 % of control

CC(=O)/C=C(\C)OC1CCCCC1
T/C [4]: 113 % of control
T/C [5]: 104 % of control
T/C [7]: 92 % of control

CCN(CC)CCOC(=O)c1ccccc1N(c1ccccc1)c1ccccc1
T/C (dose: 62.5 mg/kg/injection, schedule: Q01DX009 (ip), vehicle: saline sonified): 102 % of control
T/C (dose: 125.0 mg/kg/injection, schedule: Q01DX009 (ip), vehicle: saline sonified): 89 % of control
T/C (dose: 250.0 mg/kg/injection, schedule: Q01DX009 (ip), vehicle: saline sonified): 89 % of control

C=C1C(=O)OC2/C=C(\C)CC/C=C(/C=O)C(OC(=O)C(C)C)C(O)C12 (stereo unspecified)
T/C (dose: 1.0 mg/kg/injection, schedule: Q01DX009 (ip), vehicle: saline with Tween-80): 97 % of control
T/C (dose: 2.0 mg/kg/injection, schedule: Q01DX009 (ip), vehicle: saline with Tween-80): 89 % of control and 97 % of control
T/C (dose: 4.0 mg/kg/injection, schedule: Q01DX009 (ip), vehicle: saline with Tween-80): 100 % of control and 103 % of control
T/C (dose: 8.0 mg/kg/injection, schedule: Q01DX009 (ip), vehicle: saline with Tween-80): 100 % of control
